Laboratory results as given in PMC11508334, “In Vitro Evaluation of New 5-Nitroindazolin-3-one Derivatives as Promising Agents against Trypanosoma cruzi” (International Journal of Molecular Sciences, 2024).

What was measured:
[1] = tested on: Dm28c trypomastigote of T. cruzi; assay: Mitochondrial membrane potential (TMRM incorporation); format: cell-based, Trypanosoma cruzi; details: trypomastigotes, compound at IC50, 3 h; compared to negative control
Experimental: Mitochondrial membrane potential (ψm) was determined by the incorporation of the fluorescent probe tetramethylrhodamine methyl ester (TMRM). […] Then, carbonylcyanide-m-chlorophenylhydrazone (CCCP, 10 µM) was added as a control and incubated at 37 °C in humidified air and 5% CO2 for 3 h. Parasites were washed with phosphate-buffered saline (pH 7.4), and suspensions were incubated with TMRM (50 nM) for 15 min. Fluorescence measurements determined the incorporation of the probe at an excitation wavelength of 550 nm and an emission of 590 nm. All the assays were performed in darkness.

Dm28c trypomastigotes [2] = assay: Trypomastigote viability study (MTT); format: cell-based, Trypanosoma cruzi
Experimental: Vero cells (ATCC CCL-81) were infected with Dm28c trypomastigotes at a 1:3 (cell: parasite) ratio. T. cruzi trypomastigotes were initially obtained from primary cultures of peritoneal macrophage from chagasic mice. […] Vero cell cultures were then infected with trypomastigotes and incubated at 37 °C in humidified air and 5% CO2 for 5–7 days. After that time, the culture medium was collected and centrifuged at 500× g for 5 min. The trypomastigote-containing pellet was re-suspended in RPMI 1640 supplemented with inactivated FBS and penicillin–streptomycin at a final 1 × 10^7 parasites/mL density. Trypomastigote viability assays were performed using the MTT reduction method as described previously. Then, 1 × 10^7 parasites/mL was incubated in RPMI 1640 with inactivated FBS at 37 °C for 24 h with or without the studied compounds.

RAW 264.7 cells = assay: Cytotoxicity MTT assay on RAW 264.7 cells; format: cell-based; details: in vitro cytotoxicity, murine RAW 264.7 macrophages
Experimental: The compounds under study, dissolved in dimethylsulfoxide (DMSO), were added to the culture media at 10–200 μM. RAW 264.7 cells were cultured in 96-well plates (5 × 10^4 cells per well), and 100 μL of 0.5 mg/mL MTT was added to each well. The DMSO final concentration was less than 0.1% v/v. After incubation for 4 h at 37 °C, the generated water-insoluble formazan dye was dissolved by adding 100 μL of 10% w/v sodium dodecyl sulfate (SDS) in 0.01 M HCl. The plates were further incubated overnight at 37 °C; […] 0.5% of Triton X-100 was added as a positive control. The plates were further incubated overnight at 37 °C, and the optical density of the wells was determined using a microplate reader (Asys Expert Plus©, Asys Hitachi, Vienna, Austria) at 570 nm. Under these conditions, the optical density is directly proportional to the viable cell number in each well. All experiments were performed at least thrice and data were reported as means and their standard deviations from triplicate cultures. Results are reported as IC50 regarding the control (uninfected cells in culture medium)

[3] = tested on: trypomastigote form of T. cruzi; assay: Analysis of ATP levels (CellTiter-Glo); format: cell-based, Trypanosoma cruzi; details: trypomastigotes; relative to negative control
Experimental: The CellTiter-Glo® Luminescent Cell Viability Assay (Promega, Fitchburg, WI, USA) was used to detect variations in ATP levels. After incubation, treated parasites were centrifuged (6000 rpm, 10 min, 4 °C) and treated according to the manufacturer’s instructions. Luminescence was determined using the Varioskan™ LUX multi-mode microplate reader (ThermoFisher Scientific). Results were expressed as a percentage relative to the negative control without treatment. Sodium azide (20 mM NaN3 for 3 h) was added as a positive control and benznidazole as a reference treatment. (1) %relative control=luminescence sample/luminescence control∗100

[4] = Cyclic voltammetry, reduction of nitro group; format: physicochemical
Experimental: Cyclic Voltammetry (CV) was carried out using a Metrohm Autolab instrument model PGSTAT204, using dimethyl sulfoxide (DMSO) as the solvent (1 mM solutions), tetrabutylammonium perchlorate (0.1 M TBAP) as the supporting electrolyte, a hanging drop mercury electrode (HDME) as the working electrode, Ag/AgCl (3M KCl) as the reference electrode, and a graphite rod as the counter electrode. All measurements were performed after bubbling with nitrogen (N2) for 10 min.
Using Nicholson’s procedure, the Ipa/Ipc values (RNO2/RNO2^•−) were measured from each cyclic voltammogram with a scan rate between 0.1 and 2.5 V/s.

[5] = tested on: trypomastigote form of T. cruzi (Dm28c strain); assay: ESR spin trapping with DMPO in parasite media; format: cell-based, Trypanosoma cruzi; details: trypomastigotes, NADPH, aerobic conditions
Experimental: The free radical production capacity of the new complexes was assessed in the parasite by ESR using 5,5- dimethyl-1-pirroline-N-oxide (DMPO) for spin trapping. Each tested compound was dissolved in DMSO (spectroscopy grade) (ca. 1 mM) and the solution was added to a mixture containing the trypomastigote form of T. cruzi (Dm28c strain, final protein concentration 4–8 mg/mL) and DMPO (final concentration 250 mM). The mixture was transferred to a 50 μL capillary. ESR spectra were recorded in the X band (9.85 GHz) using a Bruker ECS 106 spectrometer with a rectangular cavity and 50 KHz field modulation. All the spectra were registered in the same scale after 15 scans.

Dm28c trypomastigotes [6] = assay: Intracellular ROS generation (DCFH2-DA); format: cell-based, Trypanosoma cruzi; details: compound at IC50, 40 min
Experimental: ROS detection was performed using the 2′, 7′-dichlorodihydrofluorescein diacetate (DCFH2-DA) method. For Dm28c trypomastigotes, 96-well plates were seeded with 10 × 10^6 trypomastigotes/mL in RPMI medium without phenol red and supplemented with 5% SFBi. Cultures were incubated with a 20 μM DCFH2-DA solution for 15 min at 37 °C. Then, they were centrifuged at 6000 rpm and washed 2 times with phosphate-buffered saline at pH 7.4. The DCFH2-DA-loaded trypomastigotes were then transferred to a Nunc® fluorescence 96-well plate. […] The area under fluorescence increase over time curves were determined using Origin 8 software 9.2, with areas normalized to control. Results are the means ± SD of three independent experiments.

[7] = tested on: trypomastigotes of T. cruzi; assay: Plasmatic membrane permeability assay (SYTOX Green) on trypomastigotes; format: cell-based, Trypanosoma cruzi; details: compound at IC50, 1 h
Experimental: Late growth-phase trypomastigotes of T. cruzi (3 × 10^6/well) were washed and incubated in the dark with 1 μM SYTOX Green probe (Molecular Probes) in HANKS′ balanced salts solution (HBSS; Sigma-Aldrich) supplemented with 10 mM D-glucose (HBSS + Glu). The test compound was added at IC50, and fluorescence was measured after 1 h of treatment. The maximum permeabilization was obtained with 0.5% Triton X-100. Fluorescence intensity was determined using Varioskan™ LUX multimode microplate reader (ThermoFisher Scientific, Waltham, MA, USA), with excitation and emission wavelengths of 485 and 520 nm, respectively. The following internal controls were used in the evaluation: (i) the background fluorescence of the compound at the respective wavelengths and (ii) the possible interference of DMSO. Samples were tested in triplicate.

[8] = tested on: T. cruzi epimastigote stage (Dm28c strain); assay: Epimastigotes viability study (MTT); format: cell-based, Trypanosoma cruzi
Experimental: The trypanocidal activity was evaluated against the T. cruzi epimastigote stage (Dm28c strain). It was measured through the MTT assay using 0.22 mg/mL phenazine methosulfate (as an electron carrier). T. cruzi epimastigote from the author's collection (Programa de Farmacología Molecular y Clínica, Facultad de Medicina, Universidad de Chile, Santiago, Chile) were grown at 28 °C in liver infusion tryptase (LIT) medium, as reported earlier, but replacing blood with 4 μM hemin. […] fetal bovine serum (FBS) was added to a final concentration of 10% v/v. In this colorimetric assay for testing the trypanocidal activity, the compounds were dissolved in DMSO. They were added to 3 × 10^6 parasites/mL at 100 μM final concentrations in RPMI 1640 culture medium without phenol red for 24 h at 28 °C. The final concentration of DMSO was less than 0.1% v/v. […] The MTT assay, which was described previously, determined the viability of the epimastigotes.

Q: For `O=c1c2cc([N+](=O)[O-])ccc2[nH]n1Cc1ccccn1` [Compound 5a, 5-nitro-2-picolyl-indazolin-3-one], which “effect on mitochondrial membrane potential (ψm)” value [1] is on record?
A: The value was “statistically significant impact”.

Q: And the “SI Trypomastigote” value (Dm28c trypomastigotes [2]; Selectivity Index IC50 macrophages RAW 264.7/IC50 trypomastigotes Dm28c)?
A: Its value is 12.8.

Q: And the IC50 (Dm28c trypomastigotes [2]; T. cruzi Dm28c trypomastigotes, 24 h, MTT)?
A: Its IC50 is 5.4 ± 0.7 µM.

Q: And the IC50 (RAW 264.7 cells)?
A: The IC50 was 68.9 ± 0.7 µM.

Q: What about the ATP levels [3] of the same compound?
A: The ATP levels was “significantly reduced ATP levels”.

Q: And the “−EpaIII” value ([4]; anodic peak potential of couple IIIc/IIIa, given with inverted sign, vs. Ag/AgCl electrode in DMSO)?
A: Its value is 1.32 V.

Q: What about the “−EpcIII” value ([4]; cathodic peak potential of couple IIIc/IIIa, given with inverted sign, vs. Ag/AgCl electrode in DMSO) of the same compound?
A: Its value is 1.36 V.

Q: And the Ipa/Ipc ([4]; current ratio RNO2/RNO2•−, couple IIIc/IIIa, DMSO)?
A: Its Ipa/Ipc is 0.62.

Q: And the “−E1/2” value ([4]; half-wave potential of couple IIIc/IIIa, given with inverted sign, vs. Ag/AgCl electrode in DMSO)?
A: Its value is 1.34 V.

Q: And the “radical species detected by DMPO spin trapping” value [5]?
A: The value was “generation of the hydroxyl radical”.

Q: What about the “intracellular ROS (DCF fluorescence intensity)” value (Dm28c trypomastigotes [6]) of the same compound?
A: Its value is “most significant increase in fluorescence intensity”.

Q: And the “alteration of plasma membrane permeability (SYTOX Green incorporation)” value [7]?
A: Its value is “alter plasma membrane permeability”.

Q: What about the “SI Epimastigote” value ([8]; Selectivity Index IC50 macrophages RAW 264.7/IC50 epimastigotes Dm28c) of the same compound?
A: Its value is 62.6.

Q: And the IC50 ([8]; T. cruzi Dm28c epimastigotes, 24 h, MTT)?
A: Its IC50 is 1.1 ± 0.3 µM.
